{
  "source": "ChEMBL document CHEMBL4261482",
  "about": "“Development of small molecular compounds targeting cancer stem cells” (Medchemcomm, 2017)",
  "key": {"DU-4475": {"tested_on": "DU-4475", "assay": "Antiproliferative activity against human DU4475 cells", "assay_type": "functional, cell-based"}, "T47D": {"tested_on": "T47D", "assay": "Antiproliferative activity against human T47D cells", "assay_type": "functional, cell-based"}, "CWR22R": {"tested_on": "CWR22R", "assay": "Antiproliferative activity against human 22Rv1 cells", "assay_type": "functional, cell-based"}, "A549 [1]": {"tested_on": "A549", "assay": "Antiproliferative activity against human A549 cells", "assay_type": "functional, cell-based"}, "A549 [2]": {"tested_on": "A549", "assay": "Antitumor activity against human A549 cells xenografted in BALB/cSLC-nu/nu mouse assessed as tumor growth inhibition at 10 mg/kg, iv qd administered for 14 days measured on day 15 relative to control", "assay_type": "functional", "settings": "read-out: TGI"}, "A549 [3]": {"tested_on": "A549", "assay": "Antitumor activity against human A549 cells xenografted in BALB/cSLC-nu/nu mouse assessed as tumor growth inhibition at 10 mg/kg administered through oral gavage as qd for 14 days measured on day 15 relative to control", "assay_type": "functional", "settings": "read-out: TGI"}, "MV4-11": {"tested_on": "MV4-11", "assay": "Cytotoxicity against human MV4-11 cells assessed as decrease in cell viability after 48 hrs by MTT assay", "assay_type": "functional, cell-based", "settings": "MV4-11, 48 h"}, "THP-1": {"tested_on": "THP-1", "assay": "Cytotoxicity against human THP1 cells assessed as decrease in cell viability after 48 hrs by MTT assay", "assay_type": "functional, cell-based", "settings": "THP-1, 48 h"}, "KG-1": {"tested_on": "KG-1", "assay": "Cytotoxicity against human KG1 cells assessed as decrease in cell viability after 48 hrs by MTT assay", "assay_type": "functional, cell-based", "settings": "KG-1, 48 h"}, "[4]": {"assay": "Cytotoxicity against human KOCL48 cells assessed as decrease in cell viability after 48 hrs by MTT assay", "assay_type": "functional, cell-based"}, "MOLM-13": {"tested_on": "MOLM-13", "assay": "Cytotoxicity against human MOLM13 cells assessed as decrease in cell viability after 48 hrs by MTT assay", "assay_type": "functional, cell-based", "settings": "MOLM-13, 48 h"}, "KG-1a": {"tested_on": "KG-1a", "assay": "Cytotoxicity against human KG1a cells assessed as decrease in cell viability after 48 hrs by MTT assay", "assay_type": "functional, cell-based"}, "K562": {"tested_on": "K562", "assay": "Cytotoxicity against human K562 cells assessed as decrease in cell viability after 48 hrs by MTT assay", "assay_type": "functional, cell-based", "settings": "K562, 48 h"}, "ML-2": {"tested_on": "ML-2", "assay": "Cytotoxicity against human ML2 cells assessed as decrease in cell viability after 48 hrs by MTT assay", "assay_type": "functional, cell-based", "settings": "ML-2, 48 h"}, "U-937": {"tested_on": "U-937", "assay": "Cytotoxicity against human U937 cells assessed as decrease in cell viability after 48 hrs by MTT assay", "assay_type": "functional, cell-based", "settings": "U-937, 48 h"}, "BGC-823": {"tested_on": "BGC-823", "assay": "Antiproliferative activity against human BGC823 cells after 24 to 96 hrs by CCK8 assay", "assay_type": "functional, cell-based"}, "SGC-7901": {"tested_on": "SGC-7901", "assay": "Antiproliferative activity against human SGC7901 cells after 24 to 96 hrs by CCK8 assay", "assay_type": "functional, cell-based"}, "[5]": {"assay": "Antitumor activity against human gastric cancer cells xenografted in NOD/SCID mouse assessed as tumor growth inhibition at 15 mg/kg, iv administered once in every 2 days for 2 weeks measured on day 15 relative to control", "assay_type": "functional", "settings": "read-out: TGI"}, "NCI-H69": {"tested_on": "NCI-H69", "assay": "Cytotoxicity against human H69 cells assessed as decrease in cell viability after 72 hrs by MTT assay", "assay_type": "functional, cell-based", "settings": "NCI-H69, 72 h"}, "NCI-H82": {"tested_on": "NCI-H82", "assay": "Cytotoxicity against human H82 cells assessed as decrease in cell viability after 72 hrs by MTT assay", "assay_type": "functional, cell-based", "settings": "NCI-H82, 72 h"}, "NCI-H524": {"tested_on": "NCI-H524", "assay": "Cytotoxicity against human NCI-H524 cells assessed as decrease in cell viability after 72 hrs by MTT assay", "assay_type": "functional, cell-based", "settings": "NCI-H524, 72 h"}, "DMS-114": {"tested_on": "DMS-114", "assay": "Cytotoxicity against human DMS114 cells assessed as decrease in cell viability after 72 hrs by MTT assay", "assay_type": "functional, cell-based", "settings": "DMS-114, 72 h"}, "SBC-5": {"tested_on": "SBC-5", "assay": "Cytotoxicity against human SBC5 cells assessed as decrease in cell viability after 72 hrs by MTT assay", "assay_type": "functional, cell-based", "settings": "SBC-5, 72 h"}, "SBC-3": {"tested_on": "SBC-3", "assay": "Cytotoxicity against human SBC3 cells assessed as decrease in cell viability after 72 hrs by MTT assay", "assay_type": "functional, cell-based", "settings": "SBC-3, 72 h"}, "[6]": {"assay": "Cytotoxicity against human H69AR cells assessed as decrease in cell viability after 72 hrs by MTT assay", "assay_type": "functional, cell-based"}, "NCI-H2171": {"tested_on": "NCI-H2171", "assay": "Cytotoxicity against human NCI-H2171 cells assessed as decrease in cell viability after 72 hrs by MTT assay", "assay_type": "functional, cell-based", "settings": "NCI-H2171, 72 h"}, "NCI-H446": {"tested_on": "NCI-H446", "assay": "Cytotoxicity against human NCI-H446 cells assessed as decrease in cell viability after 72 hrs by MTT assay", "assay_type": "functional, cell-based", "settings": "NCI-H446, 72 h"}, "NCI-H146": {"tested_on": "NCI-H146", "assay": "Cytotoxicity against human NCI-H146 cells assessed as decrease in cell viability after 72 hrs by MTT assay", "assay_type": "functional, cell-based", "settings": "NCI-H146, 72 h"}, "DMS-273": {"tested_on": "DMS-273", "assay": "Cytotoxicity against human DMS273 cells assessed as decrease in cell viability after 72 hrs by MTT assay", "assay_type": "functional, cell-based", "settings": "DMS-273, 72 h"}, "CAKI-1": {"tested_on": "CAKI-1", "assay": "Cytotoxicity against human Caki1 cells assessed as decrease in cell viability after 72 hrs by MTT assay", "assay_type": "functional, cell-based", "settings": "CAKI-1, 72 h"}, "769-P": {"tested_on": "769-P", "assay": "Cytotoxicity against human 769-P cells assessed as decrease in cell viability after 72 hrs by MTT assay", "assay_type": "functional, cell-based"}, "786-0": {"tested_on": "786-0", "assay": "Cytotoxicity against human 786-O cells assessed as decrease in cell viability after 72 hrs by MTT assay", "assay_type": "functional, cell-based", "settings": "786-0, 72 h"}, "[7]": {"assay": "Cytotoxicity against human VMRC-RCW cells assessed as decrease in cell viability after 72 hrs by MTT assay", "assay_type": "functional, cell-based"}, "CAKI-2": {"tested_on": "CAKI-2", "assay": "Cytotoxicity against human Caki2 cells assessed as decrease in cell viability after 72 hrs by MTT assay", "assay_type": "functional, cell-based", "settings": "CAKI-2, 72 h"}},
  "data": [
    {"smiles": "CC(=O)c1cnc2ccc(-c3cc(Cl)c(O)c(Cl)c3)nc2c1N[C@H]1CC[C@H](CN(C)C)CC1", "values": [
      {"measurement": "IC50", "setting": "DU-4475", "result": 2.3, "unit": "nM"},
      {"measurement": "IC50", "setting": "T47D", "result": 4.3, "unit": "nM"},
      {"measurement": "IC50", "setting": "CWR22R", "result": 6, "unit": "nM"},
      {"measurement": "IC50", "setting": "A549 [1]", "result": 6.7, "unit": "nM"},
      {"measurement": "inhibition in vivo at 10 mg/kg", "setting": "A549 [2]", "result": 108, "unit": "%"},
      {"measurement": "inhibition in vivo at 10 mg/kg", "setting": "A549 [3]", "result": 124, "unit": "%"},
      {"measurement": "IC50", "setting": "MV4-11", "result": 7.9, "unit": "nM"},
      {"measurement": "IC50", "setting": "THP-1", "result": 15.6, "unit": "nM"},
      {"measurement": "IC50", "setting": "KG-1", "result": 16.9, "unit": "nM"},
      {"measurement": "IC50", "setting": "[4]", "result": 16.9, "unit": "nM"},
      {"measurement": "IC50", "setting": "MOLM-13", "result": 17.5, "unit": "nM"},
      {"measurement": "IC50", "setting": "KG-1a", "result": 26.4, "unit": "nM"},
      {"measurement": "IC50", "setting": "K562", "result": 33, "unit": "nM"},
      {"measurement": "IC50", "setting": "ML-2", "result": 33.8, "unit": "nM"},
      {"measurement": "IC50", "setting": "U-937", "result": 69.8, "unit": "nM"},
      {"measurement": "IC50", "setting": "BGC-823", "result": 25, "unit": "nM"},
      {"measurement": "IC50", "setting": "SGC-7901", "result": 25, "unit": "nM"},
      {"measurement": "inhibition in vivo at 15 mg/kg", "setting": "[5]", "result": "106 to 112", "unit": "%"},
      {"measurement": "IC50", "setting": "NCI-H69", "result": 0.8, "unit": "nM"},
      {"measurement": "IC50", "setting": "NCI-H82", "result": 1.7, "unit": "nM"},
      {"measurement": "IC50", "setting": "NCI-H524", "result": 1.9, "unit": "nM"},
      {"measurement": "IC50", "setting": "DMS-114", "result": 2.1, "unit": "nM"},
      {"measurement": "IC50", "setting": "SBC-5", "result": 2.8, "unit": "nM"},
      {"measurement": "IC50", "setting": "SBC-3", "result": 4.3, "unit": "nM"},
      {"measurement": "IC50", "setting": "[6]", "result": 4.4, "unit": "nM"},
      {"measurement": "IC50", "setting": "NCI-H2171", "result": 4.7, "unit": "nM"},
      {"measurement": "IC50", "setting": "NCI-H446", "result": 6.2, "unit": "nM"},
      {"measurement": "IC50", "setting": "NCI-H146", "result": 7.9, "unit": "nM"},
      {"measurement": "IC50", "setting": "DMS-273", "result": 8.4, "unit": "nM"},
      {"measurement": "IC50", "setting": "CAKI-1", "result": 12.4, "unit": "nM"},
      {"measurement": "IC50", "setting": "769-P", "result": 20.1, "unit": "nM"},
      {"measurement": "IC50", "setting": "786-0", "result": 23.9, "unit": "nM"},
      {"measurement": "IC50", "setting": "[7]", "result": 25.5, "unit": "nM"},
      {"measurement": "IC50", "setting": "CAKI-2", "result": 38.7, "unit": "nM"}
    ]}
  ]
}
